Measured values as given in US20260108512A1, “COMPOUNDS, COMPOSITIONS AND METHODS OF TREATING DISORDERS” (HOTSPOT THERAPEUTICS, INC., priority 2022, published 2026).

Molecular target: T1, Cbl-b (Homo sapiens, UniProt Q13191)
T1 construct: biotin (biotinylated protein)
Assay: Cbl-b LCK Ub TR-FRET assay
Type: biochemical
Details: average IC50, graded A-C; read-out: CBL-B_TR-FRET_AVG_IC50
Description: Compounds are 3-fold serially diluted in DMSO in a 384-well polypropylene plate (e.g., #P-05525-BC; Labcyte) to generate a source plate with 10 concentrations of each compound, top concentration=2 mM. 80 nL of DMSO or compounds are transferred to each well of a black 384-well ProxiPlate (e.g., #6008260; PerkinElmer) using a Labcyte Echo, 1×assay buffer (50 mM HEPES pH7.0, 100 mM NaCl, 0.01% BSA, 0.01% Triton-X100, 1 mM DTT), 2×enzyme solution (16 nM Biotin-Cbl-b or 12 nM Biotin-c-Cbl in 1×assay buffer), 2×kinase mixture (120 nM His-LCK, 1 mM ATP, 10 mM MgCl2 in assay buffer) and 2.33×detection mixture (4.66×solution 1:163 nM Anti-HA-D2 antibody (e.g., #610HADAB:PerkinElmer), 27.96 nM Streptavidin-EU (e.g., #AD0062; PerkinElmer), 1.398 mM EDTA in 1×assay buffer+4.66×solution 2:2.796 pM UBE2D2/Methylated-HA-Ubiquitin thioester adduct (e.g., BostonBiochem) in 1×assay buffer) are prepared. 4 μL of 2×enzyme solution are added to each well containing compound, briefly centrifuged to mix, and incubated for 60 min at room temperature. 4 μL of 2×kinase mixture is added, briefly centrifuged to mix, and incubated for 90 min. at room temperature. 6 μL of detection mixture is added to all wells and briefly centrifuged before incubating for 20 min at room temperature. Plates am read for TR-FRET using an Envision at excitation 340 nm, emission at 615 and 665 nm, 4 flashes per well. IC50 is generated using no LCK as the low control and DMSO as the high control.

T1 sequence (Q13191 40-426): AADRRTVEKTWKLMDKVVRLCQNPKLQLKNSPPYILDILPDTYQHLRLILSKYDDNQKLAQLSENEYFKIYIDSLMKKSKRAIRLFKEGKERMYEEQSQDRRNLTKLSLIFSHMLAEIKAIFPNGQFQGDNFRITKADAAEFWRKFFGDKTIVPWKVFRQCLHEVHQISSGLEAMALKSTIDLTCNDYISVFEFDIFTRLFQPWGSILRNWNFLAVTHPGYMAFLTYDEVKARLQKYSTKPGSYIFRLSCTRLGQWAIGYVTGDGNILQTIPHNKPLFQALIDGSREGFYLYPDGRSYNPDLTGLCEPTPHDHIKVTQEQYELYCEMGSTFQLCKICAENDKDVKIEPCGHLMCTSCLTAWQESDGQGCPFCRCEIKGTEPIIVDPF

Row | SMILES | IC50
1 | COC[C@H]1CCCN1Cc1cc(C(F)(F)F)c2cn(-c3cccc(C4([C@@H](F)c5nncn5C)COC4)c3)c(=O)n2c1 (single isomer, unassigned) [Compound 11] | 101 to 500 nM
2 | Cn1cnnc1[C@H](F)C1(c2cccc(-n3cc4c(C(F)(F)F)cc(CNC5(C)CCC5)cn4c3=O)c2)COC1 (single isomer, unassigned) [Compound 2] | 501 to 10000 nM
3 | Cn1cnnc1[C@@H](F)[C@](C)(F)c1cccc(-n2cc3c(C(F)(F)F)cc(CN4CCC5(CC5)C4)cn3c2=O)c1 (single isomer, unassigned) [Compound 7] | 101 to 500 nM
4 | Cn1cnnc1[C@@H](F)[C@@](C)(F)c1cccc(-n2cc3c(C(F)(F)F)cc(CN4CCC5(CC5)C4)cn3c2=O)c1 [Compound 8] | 101 to 500 nM
5 | Cn1cnnc1[C@H](F)C1(c2cccc(-n3cc4c(C(F)(F)F)cc(CN)cn4c3=O)c2)COC1 [Compound 4] | 101 to 500 nM
6 | CC(C)[C@H]1CN(C)CCN1Cc1cc(C(F)(F)F)c2cn(-c3cccc(C4([C@H](F)c5nncn5C)CC(F)(F)C4)c3)c(=O)n2c1 (single isomer, unassigned) [Compound 13] | < 100 nM
7 | CC(C)[C@H]1CN(C)CCN1Cc1cc(C(F)(F)F)c2cn(-c3cccc(C4([C@@H](F)c5nncn5C)CC(F)(F)C4)c3)c(=O)n2c1 (single isomer, unassigned) [Compound 12] | < 100 nM
8 | COC[C@H]1CCCN1Cc1cc(C(F)(F)F)c2cn(-c3cccc(C4([C@H](F)c5nncn5C)COC4)c3)c(=O)n2c1 (single isomer, unassigned) [Compound 10] | 501 to 10000 nM
9 | Cn1cnnc1[C@H](F)[C@@](C)(F)c1cccc(-n2cc3c(C(F)(F)F)cc(CN4CCC5(CC5)C4)cn3c2=O)c1 [Compound 9] | 501 to 10000 nM
10 | Cn1cnnc1[C@@H](F)C1(c2cccc(-n3cc4c(C(F)(F)F)cc(CN)cn4c3=O)c2)COC1 (single isomer, unassigned) [Compound 5] | 101 to 500 nM
11 | Cn1cnnc1[C@@H](F)C1(c2cccc(-n3cc4c(C(F)(F)F)cc(CNC5(C)CCC5)cn4c3=O)c2)COC1 (single isomer, unassigned) [Compound 3] | 501 to 10000 nM
12 | CC(C)[C@H]1CN(C)CCN1Cc1cc(C(F)(F)F)c2cn(-c3cccc(C4(Cc5nncn5C(F)F)COC4)c3)c(=O)n2c1 [Compound 1] | < 100 nM
13 | Cn1cnnc1[C@@H](F)[C@](C)(F)c1cccc(-n2cc3c(C(F)(F)F)cc(CN4CCC5(CC5)C4)cn3c2=O)c1 (single isomer, unassigned) [Compound 6] | < 100 nM

Next, values leading:

Row | IC50 | SMILES
14 | 101 to 500 nM | Cn1cnnc1[C@@H](F)C1(c2cccc(-n3cc4c(C(F)(F)F)cc(CN5CCC5)cn4c3=O)c2)COC1 (single isomer, unassigned) [Compound 19]
15 | < 100 nM | Cn1cnnc1[C@H](F)C1(c2cccc(-n3cc4c(C(F)(F)F)cc(CN5CC6CC5C6)cn4c3=O)c2)COC1 (single isomer, unassigned) [Compound 16]
16 | < 100 nM | CC(C)[C@H]1CN(C)CCN1Cc1cc(C(F)(F)F)c2cn(-c3cccc(C4([C@@H](F)c5nncn5C)COC4)c3)c(=O)n2c1 (single isomer, unassigned) [Compound 20]
17 | 101 to 500 nM | Cn1cnnc1[C@H](F)C1(c2cccc(-n3cc4c(C(F)(F)F)cc(CN5CC(C)(CO)C5)cn4c3=O)c2)COC1 (single isomer, unassigned) [Compound 14]
18 | 101 to 500 nM | Cn1cnnc1[C@@H](F)C1(c2cccc(-n3cc4c(C(F)(F)F)cc(CN5CC6CC5C6)cn4c3=O)c2)COC1 (single isomer, unassigned) [Compound 17]
19 | < 100 nM | CC(C)[C@H]1CN(C)CCN1Cc1cc(C(F)(F)F)c2cn(-c3cccc(C4([C@H](F)c5nncn5C)COC4)c3)c(=O)n2c1 (single isomer, unassigned) [Compound 21]
20 | < 100 nM | Cn1cnnc1[C@@H](F)C1(c2cccc(-n3cc4c(C(F)(F)F)cc(CN5CC(C)(CO)C5)cn4c3=O)c2)COC1 (single isomer, unassigned) [Compound 15]
21 | < 100 nM | Cn1cnnc1[C@H](F)C1(c2cccc(-n3cc4c(C(F)(F)F)cc(CN5CCC5)cn4c3=O)c2)COC1 (single isomer, unassigned) [Compound 18]
